Paper PMC3834954, “Design, Synthesis and in Vitro Degradation of a Novel Co-Drug for the Treatment of Psoriasis” (Pharmaceutics, 2013)

Tested on: porcine liver esterase (PLE)
Test: HPLC of naproxen release, initial rates, Lineweaver-Burk
Assay type: biochemical, Sus scrofa
Conditions: PBS, 5% acetonitrile, 25 °C, 120 IU/mL PLE, 29-91 μM substrate; ester hydrolysis

Km: 65.1 ± 0.99 µM
Compound: COc1ccc2cc(C(C)C(=O)Oc3cccc4c3C(=O)c3c(O)cccc3C4)ccc2c1 (stereo not shown) [compound 8, 8-Hydroxy-9-oxo-9,10-dihydroanthracen-1-yl 2-(6-methoxynaphthalen-2-yl)propanoate]
